Experimental data reported in article PMC6445123 (Scientific Reports, 2019).
Like-named read-outs stand apart in the source and are kept apart here.

Biological target: T1, recombinant active Casp6 (Casp6-WT) (Homo sapiens, UniProt P55212, INS179NQTEKLDTNITEVD)
T1 construct: generating mainly large subunit with a linker (LS-L), small subunit (SS), and a minor amount of large subunit (LS); His (C); made in house; host or cells: E. coli BL21(DE3)pLysS
T1 sequence (P55212 24-193 limits assumed): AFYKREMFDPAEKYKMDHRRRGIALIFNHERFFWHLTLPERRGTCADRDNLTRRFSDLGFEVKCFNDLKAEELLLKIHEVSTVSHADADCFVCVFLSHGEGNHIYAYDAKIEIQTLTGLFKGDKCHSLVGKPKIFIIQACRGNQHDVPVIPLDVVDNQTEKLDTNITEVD
T1 sequence (P55212 194-293 limits assumed): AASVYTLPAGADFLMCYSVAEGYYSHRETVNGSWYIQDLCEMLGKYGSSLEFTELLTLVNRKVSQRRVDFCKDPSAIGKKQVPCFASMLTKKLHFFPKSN
Assay: Fluorescence-based Ac-VEID-AFC cleavage assay (Casp6 activity, IC50 determination)
Type: biochemical
Method: To assess the potency of in silico hits, a fluorescence-based Ac-VEID-AFC cleavage assay was used to measure recombinant active Casp6 reaction rate in the absence or presence of 100 µM concentration of compounds. A 30% inhibition cut off was arbitrarily chosen for further investigation of putative inhibitors. […] AFC signal interference by compound intrinsic fluorescence was ruled out (Fig. S4). Casp6 inhibition was confirmed for seven compounds (C7, C13, C14, S2, S10, S11 and S13) using a colorimetric Ac-VEID-pNA cleavage assay (Table 2, Fig. S3).
Casp6 active sites were quantified using zVAD-FMK (N-benzyloxycarbonyl-Val-Ala-Asp-(O-methyl)-fluoromethylketone, MP Biomedicals, Santa Ana, CA, USA)[51],[64]. Casp6 activity was measured in Stennicke’s buffer (SB: 20 mM piperazine-N,N′-bis-(2-ethanesulfonic acid) pH 7.2, 100 mM NaCl, 10 mM DTT, 1 mM EDTA, 0.1% 3-[(3-cholamidopropyl)-dimethylammonio]-2-hydroxy-1-propanesulfonic acid, 10% sucrose)[65] using 40 µM Ac-VEID-AFC (Ac-Val-Glu-Ile-Asp-7-Amino-4-trifluoromethylcoumarin, Enzo Life Sciences, Farmingdale, NY, USA)[64] and 10-250 nM active site titrated Casp6. Reactions were initiated by Ac-VEID-AFC addition and followed for 20 min at 37 °C in a black clear bottom 96-well microplate (Costar, Corning, NY, USA) in Synergy H4 Hybrid instrument (BioTek, Winooski, VT, USA) with excitation/emission at 380/505 nm. Released AFC was calculated from AFC standard curve (0-25 µM). Casp6 VEIDase activity (released pmol AFC/min) was calculated from the initial linear reaction part. Ac-VEID-AFC hydrolysis initial velocities were measured with 10 nM active-site titrated Casp6 and […] Ac-VEID-AFC. Initial velocities v versus substrate concentration [S] were fit to a rectangular hyperbola using Michaelis-Menten equation in GraphPad Prism 5 (GraphPad Software, La Jolla, CA, USA).
In fluorescence-based Casp6 activity assay, 10 µM Ac-VEID-AFC was added to 20 nM Casp6 in SB with 100 μM compound and 1% dimethyl sulfoxide (DMSO), and reaction rate was measured for 20 min at 37 °C as above. Compound potency was calculated by normalising Ac-VEID-AFC cleavage rate to 1% DMSO control. In colorimetric Casp6 activity assay, 200 µM Ac-VEID-pNA (N-acetyl-Val-Glu-Ile-Asp-p-nitroanilide, Enzo Life Sciences) was added to 200 nM Casp6 in SB with 100 μM compound, and Ac-VEID-pNA cleavage rate was measured at 37 °C for 30 min in clear 96-well plate (Sartstedt, Nümbrecht, Germany) using Synergy H4 plate reader at 405 nm. Absorbance was converted to the released pNA amount based on a standard curve of 0–250 µM pNA. Cleavage rates were calculated from the linear assay phase and were normalised to 1% DMSO control. In Casp6-C163A cleavage assay, 0.5 ng/µl Casp6-WT was preincubated with 100 µM inhibitor, 5 µM Q-VD-OPh or 1% DMSO in SB (30 min, RT), followed by transfer on ice, addition of 0.5 µg/µl Casp6-C163A, and incubation (37 °C, 5, 10 and 15 min). Reactions were stopped by adding SDS-PAGE sample buffer (62.5 mM Tris pH 6.8, 2% SDS, 0.1 M DTT, 0.01% Bromphenol Blue, 10% glycerol) and heating (5 min, 95 °C). Samples (2 µl) were analysed on 15% SDS-PAGE gels, proteins were stained with Coomassie blue, and gels were de-stained with 10% acetic acid. The intensities of protein bands were quantified from scanned gels using ImageJ. The band intensity of Casp6-C163A without a prodomain was plotted against the time and the Casp6-C163A cleavage rates were calculated from the slopes of linear plots. The % activity of Casp6-WT in the presence of inhibitors was calculated relative to DMSO control.
IC50 values were determined against 20 nM Casp6 active sites in fluorescence-based Casp6 activity assay with 10 µM Ac-VEID-AFC and 1 nM-500 µM inhibitor. IC50 was calculated with GraphPad Prism 5 by a nonlinear regression fit for log inhibitor vs relative Casp6 activity (% DMSO control) using a Hill slope of – 1, and top and bottom constraints of 100 and 0, respectively.

inhibition at 100 µM (100 µM compound, 10 µM Ac-VEID-AFC, 20 nM Casp6, relative to 1% DMSO control): 57.1 ± 4.7%
IC50 (Casp6-WT, compared with Casp6-K284A, read-out: IC50 of C13 for Casp6-WT (Fig. 4f)): 17.2 ± 3.6 µM
IC50 (fluorescence assay, 20 nM Casp6 active sites, 10 µM Ac-VEID-AFC, read-out: IC50): 13.2 ± 2.5 µM
potency for Casp6 of in-house synthesised compound compared to commercial compound (synthesised in the authors' laboratory vs commercial source): lower potency
SMILES: COC(=O)c1cc(CNC(=O)C2Cc3ccccc3O2)cc(NC(=O)c2ccco2)c1 (stereo not shown) [Compound C13]
